Data on 15 compounds can be found in US8962596B2 (Array BioPharma Inc., priority 2010, dated 2015).

What all share (type): biochemical
The target in one assay is T1, Human Tyk2 kinase domain (Homo sapiens, UniProt P29597).
T1 construct: comprising amino acids 886 to 1187 with 10 additional histidine residues; 10xHis (histidine tag) (C, cleaved yes); made in house
T1 sequence (P29597 886-1187): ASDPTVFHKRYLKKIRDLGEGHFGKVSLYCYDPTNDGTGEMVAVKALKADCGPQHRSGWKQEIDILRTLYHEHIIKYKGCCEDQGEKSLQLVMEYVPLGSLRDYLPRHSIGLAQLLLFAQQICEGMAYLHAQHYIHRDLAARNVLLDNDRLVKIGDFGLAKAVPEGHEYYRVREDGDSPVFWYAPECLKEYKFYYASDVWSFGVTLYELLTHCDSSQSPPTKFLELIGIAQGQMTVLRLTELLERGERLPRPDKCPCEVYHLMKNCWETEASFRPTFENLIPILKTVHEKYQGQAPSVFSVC
The experiment in a line: Tyk2 Inhibition Assay (Omnia kinase fluorescence peptide substrate assay). The conditions noted are these: averaged IC50 ranges; assay of Example A; 10 μM (Km app) or 1 mM ATP, 2 nM Tyk2. The method in brief: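 2 nM His-tag-cleaved kinase domain (aa 886–1187) with 8 μM Omnia Y12 peptide, 10 μM (Km app) or 1 mM ATP, pH 7.4 HEPES/10 mM MgCl2, 2% DMSO. Fluorescence (ex 360/em 485 nm) every 50 s for 45 min; IC50 from 4-parameter fit of POC, top dose 10 μM.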

In the next assay the target is T2, JAK1 (Homo sapiens, UniProt P23458).
T2 construct: purchased Invitrogen Corporation, Carlsbad, Calif; PV4775
The experiment in a line: JAK1 Inhibition Assay (Omnia kinase fluorescence peptide substrate assay). The following applies: averaged IC50 ranges; assay of Example B; 40 μM (Km app) or 1 mM ATP, 15 nM JAK1.

For the next assay, the target named is T3, JAK2 (Homo sapiens, UniProt O60674).
T3 construct: purchased Invitrogen Corporation, Carlsbad, Calif; PV4288
Briefly: JAK2 Inhibition Assay (Omnia kinase fluorescence peptide substrate assay). The conditions noted are these: averaged IC50 ranges; assay of Example C; 25 μM (Km app) or 1 mM ATP, 5 nM JAK2. The method in brief: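 5 nM JAK2 phosphorylated 10 μM Omnia Y7 peptide with ATP at 25 μM (Km app) or 1 mM, in 25 mM HEPES pH 7.4, 10 mM MgCl2, 0.01% Triton X-100, 1 mM DTT, 2% DMSO. Fluorescence (360/485 nm) was read every 50 s for 45 min. 10-point 3-fold series from 10 μM; POC versus uninhibited and background controls, 4-parameter logistic IC50.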

The target in a further assay is T4, JAK3 (Homo sapiens, UniProt P52333).
T4 construct: purchased Invitrogen Corporation, Carlsbad, Calif; PV4080
T4 sequence (P52333 1-1124): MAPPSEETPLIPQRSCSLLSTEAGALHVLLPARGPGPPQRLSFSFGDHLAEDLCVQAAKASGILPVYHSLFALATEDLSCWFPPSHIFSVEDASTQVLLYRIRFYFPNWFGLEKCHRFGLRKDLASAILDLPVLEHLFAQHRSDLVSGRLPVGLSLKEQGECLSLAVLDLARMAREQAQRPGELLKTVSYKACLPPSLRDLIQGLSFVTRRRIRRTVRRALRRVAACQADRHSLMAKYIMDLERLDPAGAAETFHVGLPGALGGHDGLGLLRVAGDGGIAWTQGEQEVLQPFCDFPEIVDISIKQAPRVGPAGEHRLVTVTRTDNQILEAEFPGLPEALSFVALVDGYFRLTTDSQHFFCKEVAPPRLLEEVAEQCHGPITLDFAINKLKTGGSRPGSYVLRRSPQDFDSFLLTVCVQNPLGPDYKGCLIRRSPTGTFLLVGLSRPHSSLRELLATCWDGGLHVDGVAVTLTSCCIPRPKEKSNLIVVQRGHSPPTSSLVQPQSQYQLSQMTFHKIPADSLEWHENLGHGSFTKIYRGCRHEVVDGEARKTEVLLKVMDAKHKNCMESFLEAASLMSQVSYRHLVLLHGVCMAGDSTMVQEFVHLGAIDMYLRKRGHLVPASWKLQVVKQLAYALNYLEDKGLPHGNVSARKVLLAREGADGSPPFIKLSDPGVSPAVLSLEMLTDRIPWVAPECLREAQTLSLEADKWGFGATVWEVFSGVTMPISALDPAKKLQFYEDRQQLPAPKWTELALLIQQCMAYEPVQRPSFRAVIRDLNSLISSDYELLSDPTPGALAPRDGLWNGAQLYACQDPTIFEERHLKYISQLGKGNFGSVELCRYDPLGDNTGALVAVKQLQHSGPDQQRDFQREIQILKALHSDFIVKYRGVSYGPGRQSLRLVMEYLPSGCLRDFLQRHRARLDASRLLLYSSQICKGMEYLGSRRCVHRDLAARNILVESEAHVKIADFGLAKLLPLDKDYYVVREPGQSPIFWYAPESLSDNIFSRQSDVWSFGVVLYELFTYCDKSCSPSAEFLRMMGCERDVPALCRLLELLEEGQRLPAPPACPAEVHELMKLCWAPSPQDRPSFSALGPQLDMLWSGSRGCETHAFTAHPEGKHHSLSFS
Briefly: JAK3 Inhibition Assay (Omnia kinase fluorescence peptide substrate assay). The conditions noted are these: averaged IC50 ranges; assay of Example D; 10 μM (Km app) or 1 mM ATP, 2.5 nM JAK3. Put shortly:
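Kinase at 2.5 nM with 10 µM Omnia Y7 peptide and 10 µM (Km app) or 1 mM ATP in 25 mM HEPES pH 7.4, 10 mM MgCl2, 1 mM DTT, 0.01% Triton X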

T2 sequence (P23458 whole entry): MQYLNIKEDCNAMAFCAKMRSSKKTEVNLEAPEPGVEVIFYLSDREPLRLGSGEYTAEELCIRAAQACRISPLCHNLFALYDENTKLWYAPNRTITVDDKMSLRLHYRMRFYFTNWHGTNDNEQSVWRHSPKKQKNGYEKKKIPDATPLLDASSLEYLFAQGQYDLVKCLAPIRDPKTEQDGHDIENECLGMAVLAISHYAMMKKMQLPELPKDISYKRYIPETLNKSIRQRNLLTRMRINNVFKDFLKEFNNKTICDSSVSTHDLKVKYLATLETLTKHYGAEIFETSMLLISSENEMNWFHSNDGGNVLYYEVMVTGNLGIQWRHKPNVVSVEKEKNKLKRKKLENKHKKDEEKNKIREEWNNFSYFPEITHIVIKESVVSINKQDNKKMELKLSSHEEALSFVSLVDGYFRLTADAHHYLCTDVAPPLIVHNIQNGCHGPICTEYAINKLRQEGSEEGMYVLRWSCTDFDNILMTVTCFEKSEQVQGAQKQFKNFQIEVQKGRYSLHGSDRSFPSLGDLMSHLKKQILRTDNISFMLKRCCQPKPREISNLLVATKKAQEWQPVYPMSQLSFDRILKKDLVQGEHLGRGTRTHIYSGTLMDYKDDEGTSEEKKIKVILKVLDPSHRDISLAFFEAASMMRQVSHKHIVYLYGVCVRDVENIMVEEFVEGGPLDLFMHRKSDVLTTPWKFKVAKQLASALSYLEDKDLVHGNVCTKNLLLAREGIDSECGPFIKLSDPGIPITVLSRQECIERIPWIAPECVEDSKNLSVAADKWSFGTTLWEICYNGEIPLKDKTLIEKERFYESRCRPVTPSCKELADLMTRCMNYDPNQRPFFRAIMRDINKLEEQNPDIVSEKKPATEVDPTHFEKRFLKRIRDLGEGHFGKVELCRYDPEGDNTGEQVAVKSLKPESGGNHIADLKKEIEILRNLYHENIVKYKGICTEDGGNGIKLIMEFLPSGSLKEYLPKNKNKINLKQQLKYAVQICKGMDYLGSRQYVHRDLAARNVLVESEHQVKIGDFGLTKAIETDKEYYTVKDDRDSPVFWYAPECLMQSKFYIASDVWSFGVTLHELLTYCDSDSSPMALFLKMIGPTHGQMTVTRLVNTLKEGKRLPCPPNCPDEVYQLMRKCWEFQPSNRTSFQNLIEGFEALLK
T3 sequence (O60674 whole entry): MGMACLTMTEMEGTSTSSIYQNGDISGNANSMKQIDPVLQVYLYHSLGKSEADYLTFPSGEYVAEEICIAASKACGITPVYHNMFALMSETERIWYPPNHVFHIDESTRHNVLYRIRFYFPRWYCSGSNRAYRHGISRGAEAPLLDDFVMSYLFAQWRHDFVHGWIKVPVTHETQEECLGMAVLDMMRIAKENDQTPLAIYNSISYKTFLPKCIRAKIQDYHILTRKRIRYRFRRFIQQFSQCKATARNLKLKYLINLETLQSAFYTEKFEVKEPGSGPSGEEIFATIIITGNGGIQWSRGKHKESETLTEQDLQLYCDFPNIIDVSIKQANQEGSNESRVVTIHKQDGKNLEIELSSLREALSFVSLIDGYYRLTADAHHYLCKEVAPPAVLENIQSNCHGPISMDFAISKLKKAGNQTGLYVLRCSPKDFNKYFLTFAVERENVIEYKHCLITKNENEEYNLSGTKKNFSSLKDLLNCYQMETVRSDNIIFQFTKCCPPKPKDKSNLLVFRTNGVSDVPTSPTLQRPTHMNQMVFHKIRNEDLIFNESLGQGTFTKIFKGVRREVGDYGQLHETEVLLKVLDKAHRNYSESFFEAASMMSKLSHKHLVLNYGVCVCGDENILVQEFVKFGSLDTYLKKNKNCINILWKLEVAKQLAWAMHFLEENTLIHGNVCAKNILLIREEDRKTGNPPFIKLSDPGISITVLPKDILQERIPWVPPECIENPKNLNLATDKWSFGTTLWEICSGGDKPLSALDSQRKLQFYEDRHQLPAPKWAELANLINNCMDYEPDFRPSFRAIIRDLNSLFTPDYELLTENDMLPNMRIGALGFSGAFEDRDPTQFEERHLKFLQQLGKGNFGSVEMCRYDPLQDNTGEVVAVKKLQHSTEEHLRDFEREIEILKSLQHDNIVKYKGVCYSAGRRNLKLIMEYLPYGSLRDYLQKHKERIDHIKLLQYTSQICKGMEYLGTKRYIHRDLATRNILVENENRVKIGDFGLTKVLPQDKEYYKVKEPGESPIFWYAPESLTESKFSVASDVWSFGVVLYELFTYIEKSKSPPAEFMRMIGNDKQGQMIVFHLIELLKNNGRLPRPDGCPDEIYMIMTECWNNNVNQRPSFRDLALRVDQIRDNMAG

Regarding `CC(C)Cn1cc(-c2cc3nccn3c(-c3cnn(C(CC#N)C4CC4)c3)n2)cn1` (stereo not drawn) [Example 37, 3-cyclopropyl-3-(4-(7-(1-isobutyl-1H-pyrazol-4-yl)imidazo[1,2-c]pyrimidin-5-yl)-1H-pyrazol-1-yl)propanenitrile], the IC50 (as a rule, the concentration at which inhibition is half-maximal) is 0.01 to 0.1 µM against Human Tyk2 kinase domain, 0.1 to 1 µM against JAK1, 0.01 to 0.1 µM at JAK2 and over 1 µM against JAK3.

On to `CN1CCN(c2ccc(-c3cc4nccn4c(-c4cnn(C5(CC#N)CN(S(=O)(=O)C(F)(F)F)C5)c4)n3)cc2)CC1` [Example 138, 2-(3-(4-(7-(4-(4-methylpiperazin-1-yl)phenyl)imidazo[1,2-c]pyrimidin-5-yl)-1H-pyrazol-1-yl)-1-(trifluoromethylsulfonyl)azetidin-3-yl)acetonitrile], for which the IC50 was under 0.01 µM on Human Tyk2 kinase domain, 0.01 to 0.1 µM against JAK1, 0.01 to 0.1 µM against JAK2 and 0.1 to 1 µM against JAK3.

On to `N#CCC1(n2cc(-c3nc(-c4cnn(C5COC5)c4)cc4nccn34)cn2)CC2(CCC2)C1` [Example 162, 2-(2-(4-(7-(1-(oxetan-3-yl)-1H-pyrazol-4-yl)imidazo[1,2-c]pyrimidin-5-yl)-1H-pyrazol-1-yl)spiro[3.3]heptan-2-yl)acetonitrile], for which the IC50 against Human Tyk2 kinase domain is under 0.01 µM; against JAK1 it was 0.1 to 1 µM; at JAK2, 0.01 to 0.1 µM; against JAK3, 0.1 to 1 µM.

Consider `Cn1cc(-c2cc3nccn3c(-c3cnn(C4(CC#N)CN(CCCF)C4)c3)n2)cn1` [Example 74, 2-(1-(3-fluoropropyl)-3-(4-(7-(1-methyl-1H-pyrazol-4-yl)imidazo[1,2-c]pyrimidin-5-yl)-1H-pyrazol-1-yl)azetidin-3-yl)acetonitrile], for which the IC50 at Human Tyk2 kinase domain was under 0.01 µM; at JAK1 it was 0.1 to 1 µM; against JAK2, 0.1 to 1 µM; on JAK3 it was over 1 µM.

In the case of `Cc1nnc(-c2cc3nccn3c(-c3cnn(C(CC#N)C4CC4)c3)n2)s1` (stereo not drawn) [Example 45, 3-Cyclopropyl-3-(4-(7-(5-methyl-1,3,4-thiadiazol-2-yl)imidazo[1,2-c]pyrimidin-5-yl)-1H-pyrazol-1-yl)propanenitrile], the IC50 against Human Tyk2 kinase domain is 0.1 to 1 µM; at JAK1, over 1 µM; at JAK2, over 1 µM; against JAK3, over 1 µM.

With `Cn1cc(-c2cc3nccn3c(-c3cnn(C4(CC#N)CN(S(=O)(=O)C5CCCCC5)C4)c3)n2)cn1` [Example 94, 2-(1-(cyclohexylsulfonyl)-3-(4-(7-(1-methyl-1H-pyrazol-4-yl)imidazo[1,2-c]pyrimidin-5-yl)-1H-pyrazol-1-yl)azetidin-3-yl)acctonitrile], the IC50 at Human Tyk2 kinase domain is 0.01 to 0.1 µM; at JAK1 it was over 1 µM; on JAK2, 0.1 to 1 µM; at JAK3, over 1 µM.

For the compound `Cn1cc(-c2cc3nccn3c(-c3cnn(C(C)(CC#N)c4ccccc4)c3)n2)cn1` (stereo not drawn) [Example 16, 3-(4-(7-(1-methyl-1H-pyrazol-4-yl)imidazo[1,2-c]pyrimidin-5-yl)-1H-pyrazol-1-yl)-3-phenylbutanenitrile], the IC50 against Human Tyk2 kinase domain was 0.1 to 1 µM; on JAK1, over 1 µM; against JAK2, 0.1 to 1 µM; on JAK3 it was over 1 µM.

Turning to `CC(=O)N1CCC(C(CC#N)n2cc(-c3nc(-c4cnn(C)c4)cc4nccn34)cn2)CC1` (stereo not drawn) [Example 27, 3-(1-acetylpiperidin-4-yl)-3-(4-(7-(1-methyl-1H-pyrazol-4-yl)imidazo[1,2-c]pyrimidin-5-yl)-1H-pyrazol-1-yl)propanenitrile], the IC50 against Human Tyk2 kinase domain is 0.1 to 1 µM; at JAK1, 0.1 to 1 µM; at JAK2, 0.1 to 1 µM; on JAK3, over 1 µM.

With `Cn1cc(-c2cc3ncc(C#N)n3c(-c3cnn(C(CC#N)C4CC4)c3)n2)cn1` (stereo not drawn) [Example 26, 5-(1-(2-cyano-1-cyclopropylethyl)-1H-pyrazol-4-yl)-7-(1-methyl-1H-pyrazol-4-yl)imidazo[1,2-c]pyrimidine-3-carbonitrile], the IC50 was 0.1 to 1 µM against Human Tyk2 kinase domain, over 1 µM on JAK1, 0.1 to 1 µM at JAK2 and over 1 µM on JAK3.

As for `CN1CCc2cc(-c3cc4nccn4c(-c4cnn(C(CC#N)C5CC5)c4)n3)ccc2C1` (stereo not drawn) [Example 53, 3-Cyclopropyl-3-(4-(7-(2-methyl-1,2,3,4-tetrahydroisoquinolin-6-yl)imidazo[1,2-c]pyrimidin-5-yl)-1H-pyrazol-1-yl)propanenitrile], the IC50 is 0.01 to 0.1 µM against Human Tyk2 kinase domain, 0.01 to 0.1 µM on JAK1, 0.01 to 0.1 µM against JAK2 and 0.1 to 1 µM against JAK3.

For the compound `CN1CCC(CC#N)(n2cc(-c3nc(-c4cnn(C)c4)cc4nccn34)cn2)CC1` [Example 28, 2-(1-methyl-4-(4-(7-(1-methyl-1H-pyrazol-4-yl)imidazo[1,2-c]pyrimidin-5-yl)-1H-pyrazol-1-yl)piperidin-4-yl)acetonitrile], the IC50 against Human Tyk2 kinase domain is 0.01 to 0.1 µM; against JAK1, over 1 µM; against JAK2, 0.1 to 1 µM; against JAK3 it was over 1 µM.

On to `CCn1cc(-c2cc3nccn3c(-c3cnn(C4(CC#N)CN(CC(F)(F)F)C4)c3)n2)cn1` [Example 104, 2-(3-(4-(7-(1-Ethyl-1H-pyrazol-4-yl)imidazo[1,2-c]pyrimidin-5-yl)-1H-pyrazol-1-yl)-1-(2,2,2-trifluoroethyl)azetidin-3-yl)acetonitrile], for which the IC50 at Human Tyk2 kinase domain was under 0.01 µM; against JAK1, 0.1 to 1 µM; against JAK2 it was 0.01 to 0.1 µM; against JAK3 it was over 1 µM.

For the compound `Cn1cc(-c2cc3nccn3c(-c3cnn(C(CC#N)CC(C)(C)C)c3)n2)cn1` (stereo not drawn) [Example 5], the IC50 was 0.01 to 0.1 µM against Human Tyk2 kinase domain, 0.1 to 1 µM at JAK1, 0.1 to 1 µM against JAK2 and over 1 µM on JAK3.

As for `Cn1cc(-c2cc3nccn3c(-c3ccn(C4(CC#N)CN(CC(F)(F)F)C4)n3)n2)ccc1=O` [Example 145, 2-(3-(3-(7-(1-methyl-6-oxo-1,6-dihydropyridin-3-yl)imidazo[1,2-c]pyrimidin-5-yl)-1H-pyrazol-1-yl)-1-(2,2,2-trifluoroethyl)azetidin-3-yl)acetonitrile], the IC50 on Human Tyk2 kinase domain was under 0.01 µM; against JAK1, 0.1 to 1 µM; on JAK2, 0.01 to 0.1 µM; on JAK3, over 1 µM.

`N#CCC1(n2cc(-c3nc(-c4cnn(C5COC5)c4)cc4ncc(Cl)n34)cn2)CN(CC(F)(F)F)C1` [Example 153, 2-(3-(4-(3-chloro-7-(1-(oxetan-3-yl)-1H-pyrazol-4-yl)imidazo[1,2-c]pyrimidin-5-yl)-1H-pyrazol-1-yl)-1-(2,2,2-trifluoroethyl)azetidin-3-yl)acetonitrile]: the IC50 was under 0.01 µM on Human Tyk2 kinase domain, 0.1 to 1 µM against JAK1, 0.01 to 0.1 µM on JAK2 and 0.1 to 1 µM against JAK3.
